# Columns and labels:
# Format in all cases: in vivo
# [1] = test system: redroot pigweed (Amaranthus retroflexus, AMARE); test: Pre-emerge test, greenhouse herbicide activity screening; conditions: pre-emerge, rated 14 days after application, 0 = no damage, 100 = complete death
# Procedure, shortened: (§1)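 Compounds in acetone were track-sprayed at 15-1000 g ai/ha (187 l/ha) on sandy loam pots: pre-emerge one day after seeding, post-emerge at 2-3 leaf stage with 0.25% v/v non-ionic surfactant. Phytotoxicity was rated 14 days later on a 0 (no damage) to 100 (complete death) scale.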
# [2] = test system: barnyardgrass (Echinochloa crus-galli, ECHCG); test: as above; conditions: pre-emerge, rated 14 days after application, 0 = no damage, 100 = complete death
# Procedure, shortened: (§2)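 Herbicidal damage is scored 0 (none) to 100 (complete plant death) two weeks after a simulated field spray. Rates span 15–1000 g ai/ha, delivered in acetone at 187 l/ha. For post-emergence treatments, plants have 2–3 leaves and the spray carries 0.25% v/v non-ionic surfactant.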
# [3] = test system: green foxtail (Setaria viridis, SETVI); test: as above; conditions: pre-emerge, rated 14 days after application, 0 = no damage, 100 = complete death
# Procedure, shortened: as §2
# [4] = test system: ivyleaf morningglory (Ipomoea hederacea, IPOHE); test: as above; conditions: pre-emerge, rated 14 days after application, 0 = no damage, 100 = complete death
# Procedure, shortened: as §2
# [5] = test system: johnsongrass (Sorghum halepense, SORHA); test: as above; conditions: pre-emerge, rated 14 days after application, 0 = no damage, 100 = complete death
# Procedure, shortened: as §2
# [6] = test system: lambsquarters (Chenopodium album, CHEAL); test: as above; conditions: pre-emerge, rated 14 days after application, 0 = no damage, 100 = complete death
# Procedure, shortened: as §2
# [7] = test system: large crabgrass (Digitaria sanguinalis, DIGSA); test: as above; conditions: pre-emerge, rated 14 days after application, 0 = no damage, 100 = complete death
# Procedure, shortened: as §2
# [8] = test system: sicklepod (Cassia obtusifolia, CASOB); test: as above; conditions: pre-emerge, rated 14 days after application, 0 = no damage, 100 = complete death
# Procedure, shortened: as §2
# [9] = test system: velvetleaf (Abutilon theophrasti, ABUTH); test: as above; conditions: pre-emerge, rated 14 days after application, 0 = no damage, 100 = complete death
# Procedure, shortened: as §2
# [10] = test system: field corn (Zea mays L., var. Dekalb 535, CORN); test: Pre-emerge test, crop safety; conditions: pre-emerge, rated 14 days after application, 0 = no damage, 100 = complete death
# Procedure, shortened: (§3)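 Visual ratings on a 0-100 scale (0 no damage, 100 all plants dead) were taken at 14 days after treatment. Rates of 15-1000 g ai/ha in acetone, 187 l/ha, were sprayed onto soil one day after planting (pre-emerge) or onto 2-3 leaf plants with 0.25% v/v surfactant (post-emerge).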
# [11] = test system: upland rice (Oryza sp., var. Tebonnet, RICE); test: Pre-emerge test, crop safety; conditions: pre-emerge, rated 14 days after application, 0 = no damage, 100 = complete death
# Procedure, shortened: as §3
# [12] = test system: barnyardgrass (Echinochloa crus-galli, ECHCG); test: Post-emerge test, greenhouse herbicide activity screening; conditions: phytotoxicity rating 0-100 (0 no damage, 100 complete death), 14 days after application
# Procedure, shortened: as §1
# [13] = test system: common ragweed (Ambrosia artemisizfolia L., AMBEL); test: as above; conditions: phytotoxicity rating 0-100 (0 no damage, 100 complete death), 14 days after application
# Procedure, shortened: as §1
# [14] = test system: green foxtail (Setaria viridis, SETVI); test: as above; conditions: phytotoxicity rating 0-100 (0 no damage, 100 complete death), 14 days after application
# Procedure, shortened: as §1
# [15] = test system: ivyleaf morningglory (Ipomoea hederacea, IPOHE); test: as above; conditions: phytotoxicity rating 0-100 (0 no damage, 100 complete death), 14 days after application
# Procedure, shortened: as §1
# [16] = test system: johnsongrass (Sorghum halepense, SORHA); test: as above; conditions: phytotoxicity rating 0-100 (0 no damage, 100 complete death), 14 days after application
# Procedure, shortened: as §1
# [17] = test system: lambsquarters (Chenopodium album, CHEAL); test: as above; conditions: phytotoxicity rating 0-100 (0 no damage, 100 complete death), 14 days after application
# Procedure, shortened: as §1
# [18] = test system: large crabgrass (Digitaria sanguinalis, DIGSA); test: as above; conditions: phytotoxicity rating 0-100 (0 no damage, 100 complete death), 14 days after application
# Procedure, shortened: as §1
# [19] = test system: redroot pigweed (Amaranthus retroflexus, AMARE); test: as above; conditions: phytotoxicity rating 0-100 (0 no damage, 100 complete death), 14 days after application
# Procedure, shortened: as §1
# [20] = test system: sicklepod (Cassia obtusifolia, CASOB); test: as above; conditions: phytotoxicity rating 0-100 (0 no damage, 100 complete death), 14 days after application
# Procedure, shortened: as §1
# [21] = test system: velvetleaf (Abutilon theophrasti, ABUTH); test: as above; conditions: phytotoxicity rating 0-100 (0 no damage, 100 complete death), 14 days after application
# Procedure, shortened: as §1
# [22] = test system: field corn (Zea mays L., var. Dekalb 535, CORN); test: Post-emerge test, crop safety; conditions: phytotoxicity rating 0-100 (0 no damage, 100 complete death), 14 days after application
# Procedure, shortened: as §2
# [23] = test system: upland rice (Oryza sp., var. Tebonnet, RICE); test: Post-emerge test, crop safety; conditions: phytotoxicity rating 0-100 (0 no damage, 100 complete death), 14 days after application
# Procedure, shortened: as §2
compound,measurement,setting,value
CC(C)Oc1c(Cl)cc(F)c(-n2c(=O)cc(C(F)(F)F)n(C)c2=O)c1N [Compound 1-63],"Pre-emerge Herbicidal Activity AMARE (phytotoxicity rating, scale 0-100)",[1]; 63 g ai/ha,100
same,"Pre-emerge Herbicidal Activity AMARE (phytotoxicity rating, scale 0-100)",[1]; 250 g ai/ha,100
same,"Pre-emerge Herbicidal Activity ECHCG (phytotoxicity rating, scale 0-100)",[2]; 63 g ai/ha,40
same,"Pre-emerge Herbicidal Activity ECHCG (phytotoxicity rating, scale 0-100)",[2]; 250 g ai/ha,100
same,"Pre-emerge Herbicidal Activity SETVI (phytotoxicity rating, scale 0-100)",[3]; 63 g ai/ha,95
same,"Pre-emerge Herbicidal Activity SETVI (phytotoxicity rating, scale 0-100)",[3]; 250 g ai/ha,100
same,"Pre-emerge Herbicidal Activity IPOHE (phytotoxicity rating, scale 0-100)",[4]; 63 g ai/ha,20
same,"Pre-emerge Herbicidal Activity IPOHE (phytotoxicity rating, scale 0-100)",[4]; 250 g ai/ha,95
same,"Pre-emerge Herbicidal Activity SORHA (phytotoxicity rating, scale 0-100)",[5]; 63 g ai/ha,50
same,"Pre-emerge Herbicidal Activity SORHA (phytotoxicity rating, scale 0-100)",[5]; 250 g ai/ha,99
same,"Pre-emerge Herbicidal Activity CHEAL (phytotoxicity rating, scale 0-100)",[6]; 63 g ai/ha,100
same,"Pre-emerge Herbicidal Activity CHEAL (phytotoxicity rating, scale 0-100)",[6]; 250 g ai/ha,100
same,"Pre-emerge Herbicidal Activity DIGSA (phytotoxicity rating, scale 0-100)",[7]; 63 g ai/ha,80
same,"Pre-emerge Herbicidal Activity DIGSA (phytotoxicity rating, scale 0-100)",[7]; 250 g ai/ha,100
same,"Pre-emerge Herbicidal Activity CASOB (phytotoxicity rating, scale 0-100)",[8]; 63 g ai/ha,20
same,"Pre-emerge Herbicidal Activity CASOB (phytotoxicity rating, scale 0-100)",[8]; 250 g ai/ha,90
same,"Pre-emerge Herbicidal Activity ABUTH (phytotoxicity rating, scale 0-100)",[9]; 63 g ai/ha,100
same,"Pre-emerge Herbicidal Activity ABUTH (phytotoxicity rating, scale 0-100)",[9]; 250 g ai/ha,100
same,"Pre-emerge crop damage CORN (phytotoxicity rating, scale 0-100)",[10]; 63 g ai/ha,10
same,"Pre-emerge crop damage CORN (phytotoxicity rating, scale 0-100)",[10]; 250 g ai/ha,90
same,"Pre-emerge crop damage RICE (phytotoxicity rating, scale 0-100)",[11]; 63 g ai/ha,80
same,"Pre-emerge crop damage RICE (phytotoxicity rating, scale 0-100)",[11]; 250 g ai/ha,95
same,Post-emerge Herbicidal Activity ECHCG,[12]; 63 g ai/ha,0
same,Post-emerge Herbicidal Activity ECHCG,[12]; 250 g ai/ha,30
same,Post-emerge Herbicidal Activity AMBEL,[13]; 63 g ai/ha,0
same,Post-emerge Herbicidal Activity AMBEL,[13]; 250 g ai/ha,50
same,Post-emerge Herbicidal Activity SETVI,[14]; 63 g ai/ha,0
same,Post-emerge Herbicidal Activity SETVI,[14]; 250 g ai/ha,20
same,Post-emerge Herbicidal Activity IPOHE,[15]; 63 g ai/ha,95
same,Post-emerge Herbicidal Activity IPOHE,[15]; 250 g ai/ha,90
same,Post-emerge Herbicidal Activity SORHA,[16]; 63 g ai/ha,0
same,Post-emerge Herbicidal Activity SORHA,[16]; 250 g ai/ha,0
same,Post-emerge Herbicidal Activity CHEAL,[17]; 63 g ai/ha,20
same,Post-emerge Herbicidal Activity CHEAL,[17]; 250 g ai/ha,50
same,Post-emerge Herbicidal Activity DIGSA,[18]; 63 g ai/ha,0
same,Post-emerge Herbicidal Activity DIGSA,[18]; 250 g ai/ha,0
same,Post-emerge Herbicidal Activity AMARE,[19]; 63 g ai/ha,10
same,Post-emerge Herbicidal Activity AMARE,[19]; 250 g ai/ha,10
same,Post-emerge Herbicidal Activity CASOB,[20]; 63 g ai/ha,0
same,Post-emerge Herbicidal Activity CASOB,[20]; 250 g ai/ha,0
same,Post-emerge Herbicidal Activity ABUTH,[21]; 63 g ai/ha,70
same,Post-emerge Herbicidal Activity ABUTH,[21]; 250 g ai/ha,100
same,Post-emerge Herbicidal Activity CORN (crop damage),[22]; 63 g ai/ha,0
same,Post-emerge Herbicidal Activity CORN (crop damage),[22]; 250 g ai/ha,0
same,Post-emerge Herbicidal Activity RICE (crop damage),[23]; 63 g ai/ha,10
same,Post-emerge Herbicidal Activity RICE (crop damage),[23]; 250 g ai/ha,40

# Source: patent publication US6355799B1, “Substituted benzene compounds, process for their preparation, and herbicidal and defoliant compositions containing them” (ISK Americas Incorporated, priority 1997, dated 2002)
